Assay results as given in ChEMBL document CHEMBL2331167, “Inhibitory effect of novel somatostatin peptide analogues on human cancer cell growth based on the selective inhibition of DNA polymerase β” (Bioorg Med Chem, 2013).
Activity calls are given as the source filed them. No cut-off for these calls is given here.

Assays:
HCT-116 [1] = experiment: Cytotoxicity against p53 -/- human HCT116 cells assessed as growth inhibition at 200 uM incubated for 24 hrs by WST-1 assay; format: functional, cell-based
HCT-116 [2] = experiment: Cytotoxicity against p53 +/+ human HCT116 cells assessed as growth inhibition at 200 uM incubated for 24 hrs by WST-1 assay; format: functional, cell-based
HCT-116 [3] = experiment: Cytotoxicity against p53 +/+ human HCT116 cells assessed as growth inhibition incubated for 24 hrs by WST-1 assay; format: functional; details: HCT-116, 24 h, read-out: LD50 (the source's name)

Row | SMILES | growth inhibition (GI) (HCT-116 [1]) | growth inhibition (GI) (HCT-116 [2]) | CC50 (HCT-116 [3]) [µM]
1 | CC(C)[C@H](NC(=O)[C@H](Cc1ccc(O)cc1)NC(=O)OC(C)(C)C)C(=O)Nc1cccc2ccccc12 | Active | Active | 
2 | CC(C)(C)OC(=O)N[C@@H](Cc1ccc(O)cc1)C(=O)N[C@@H](CCC(=O)O)C(=O)Nc1cccc2ccccc12 | inactive | inactive | 
3 | CC(C)C[C@H](NC(=O)[C@H](Cc1ccc(O)cc1)NC(=O)OC(C)(C)C)C(=O)Nc1cccc2ccccc12 | Active | Active | 
4 | CC(C)(C)OC(=O)N[C@@H](Cc1ccc(O)cc1)C(=O)N[C@@H](Cc1ccccc1)C(=O)Nc1cccc2ccccc12 | Active | Active | 30.7
5 | CC(C)(C)OC(=O)NCCC(=O)Nc1cccc2ccccc12 | inactive | inactive | 
6 | CC(C)(C)OC(=O)NCCCCC(=O)Nc1cccc2ccccc12 | inactive | inactive | 
7 | CC(C)(C)OC(=O)NCCCCCCC(=O)Nc1cccc2ccccc12 | inactive | inactive | 
8 | CC(C)(C)OC(=O)N[C@@H](Cc1ccc(O)cc1)C(=O)N[C@@H](CC(=O)O)C(=O)Nc1cccc2ccccc12 | inactive | inactive | 
